pIC50: −log10 of the molar value. Where a name gives a salt, the structure may show the parent alone. Read-outs that look alike come from different tables or passages of the source.
Legend:
[1] = tested on: basal gastric acid secretion in pylorus-ligated rats; assay: Inhibitory effects on basal gastric acid secretion in pylorus-ligated rats (Shay's rat model); assay type: in vivo, Sprague Dawley (SD) rats; conditions: 2.0 mg/kg into the duodenum, 5 hours after ligation
Method: Inhibitory effects of the compounds prepared in Examples 2, 8 and 22 on basal gastric acid secretion were measured according to Shay's rat model (Shay, H., et al., 1945, gastroenterology, 5, p 43-61). Male Sprague Dawley (SD) rats (body weight 180-220 g) were divided into 4 groups (n=6-7) and fasted for 18 hours with free access to water. Under isoflurane anesthesia, the abdomens of the rats were incised and then the pylorus was ligated. Immediately after ligation, control group was administered with 2 mL/kg of 0.5% methyl cellulose (MC) aqueous solution into the duodenum, and the other groups were administered with test compounds suspended in 0.5% methyl cellulose (MC) aqueous solution at a dose of 2.0 mg/kg/2 ml. 5 hours after ligation, the test animals were sacrificed, and gastric contents were removed. The removed contents were centrifuged at 4,000×g for 10 minutes and the supernatant was separated to obtain the gastric juice. The amount and pH of the gastric juice were measured and the acidity in the gastric juice was measured by 0.1N NaOH volume (ueq/mL) required for the titration of gastric acid to pH 7.0. Total acid output was measured by multiplying the acidity of the gastric juice by the amount of the gastric juice. % inhibitory activity of test compounds were calculated according to the following equation, and the results are shown in Table 2. % inhibitory activity of test compound=[(total acid output of control group-total acid output of the group treated with test compounds)/total acid output of control group]×100 [Equation 1]

5-HT2A = 5-HT2A (Homo sapiens, UniProt P28223); assay: GPCR Calcium Flux assay (FLIPR tetra, Eurofins), 5-HT2A; assay type: cell-based; conditions: for inhibition at 10 µM: read-out: inhibition rate (%) 5-HT2A; for pIC50: 8 concentrations 10 to 0.0006 uM, read-out: 50% inhibitory concentration (IC50) 5-HT2A
Method: (§1) In order to confirm whether the compounds prepared in the above Examples act as an agonist or antagonist against GPCR Target, Calcium Flux assay was performed in an assay plate in which the compounds prepared in the Examples, vehicle controls, and reference compounds were added, using a Fluorometric imaging plate reader (FLIPR tetra) equipment.
(§2) Calcium Flux assay was evaluated by entrusting the GPCR profiler assay in Safety panel assays with Eurofins. By using the Fluo-8AM calcium dye, excitation was measured at a wavelength in the range of 470 to 495 nm and Emission was measured at a wavelength in the range of 515-575 nm. GPCR Assay Buffer for Calcium Flux assay was prepared by adding 20 mM of HEPES and 2.5 mM of Probenecid to Hanks Balanced Salt Solution (HBSS) to have pH 7.4. The Compounds of Examples for evaluation of the GPCR were diluted with DMSO at a concentration of 10 mM to make a stock and then prepared by diluting in the GPCR Assay Buffer at the concentration equivalent to three times the final concentration. First, for the evaluation of GPCRs, the inhibitory activity of the compounds of the Examples was evaluated at a single concentration of 10 uM, and then the respective selected targets were four fold-diluted from 10 uM to the low side to calculate 50% inhibitory concentration (IC50), prepared at the total 8 concentrations of 10, 2.5, 0.62, 0.15, 0.04, 0.01, 0.0024, 0.0006 uM, and Calcium Flux assay for GPCR was conducted. In order to evaluate the agonist and antagonist, % inhibition rate against GPCR activity before and after treatment of the compounds and the inhibitory activity of the compounds of the Examples were determined.
(§3) As a result, when the efficacy of […] and acetylcholine of the compounds prepared in the Examples was 100%, the inhibition rate (%) at a single concentration of 10 uM was evaluated and shown in Table 8.

M2 = target: T1, M2 (Homo sapiens, UniProt P08172); assay: GPCR Calcium Flux assay (FLIPR tetra, Eurofins), M2; assay type: cell-based; conditions: for inhibition at 10 µM: single concentration of 10 uM, read-out: inhibition rate (%) M2; for pIC50: 8 concentrations 10 to 0.0006 uM, read-out: 50% inhibitory concentration (IC50) M2
T1 sequence (P08172 1-466): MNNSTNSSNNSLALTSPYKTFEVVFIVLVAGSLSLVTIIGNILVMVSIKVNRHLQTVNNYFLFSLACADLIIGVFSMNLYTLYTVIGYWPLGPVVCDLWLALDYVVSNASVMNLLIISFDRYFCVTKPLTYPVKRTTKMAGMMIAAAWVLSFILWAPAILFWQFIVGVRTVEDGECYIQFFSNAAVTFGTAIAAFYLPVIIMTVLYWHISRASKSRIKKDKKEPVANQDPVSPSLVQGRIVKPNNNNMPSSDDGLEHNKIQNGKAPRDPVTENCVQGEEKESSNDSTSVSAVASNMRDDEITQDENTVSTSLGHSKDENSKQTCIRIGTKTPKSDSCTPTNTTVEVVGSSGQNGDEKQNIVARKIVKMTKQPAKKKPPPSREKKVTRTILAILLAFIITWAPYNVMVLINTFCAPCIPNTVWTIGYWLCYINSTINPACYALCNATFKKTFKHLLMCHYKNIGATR
Method: as §1, §2, §3

[2] = target: T2, proton pump (H+/K+-ATPase) (Sus scrofa, UniProt P19156); assay: Inhibitory effects on proton pump (H+/K+-ATPase) activity, gastric vesicles, malachite green Pi detection; assay type: biochemical; conditions: hog gastric vesicles, 37° C. 40 minutes, pH 7.4
T2 construct: Gastric vesicles were prepared from a hog stomach; from tissue; host or cells: hog stomach (gastric vesicles, method of Rabon et al. 1988)
Method: The inhibitory effects on proton pump (H^+/K^+-ATPase) activity of the compounds prepared in Examples 2, 8 and 22 were measured as follows.
Gastric vesicles were prepared from a hog stomach in accordance with the known method (Edd C. Rabon et al., Preparation of Gastric H^+, K^+-ATPase., Methods in enzymology, vol. 157 Academic Press Inc., (1988), pp. 649-654). The protein contents of gastric vesicles thus prepared were quantitatively measured with Bicinchoninic Acid (BCA) kit (Thermo Co.).
80 ul of (a predetermined concentration of a test compound, 0.5% DMSO, 2.5 mM MgCl2, 12.5 mM KCl, 1.25 mM EDTA, 60 mM Tris-HCl, pH7.4) was added to each well of 96-well plate. 10 ul of the reaction solution containing gastric vesicles (60 mmol/l, Tris-HCl buffer solution, pH 7.4), and 10 ul of Tris buffer solution containing adenosine triphosphate (10 mM ATP, Tris-HCl buffer solution, pH 7.4) were added to each well and subjected to enzymatic reaction at 37° C. for 40 minutes. […] The amount of monophosphate (Pi) in the reaction solution was measured at 570 nm by using a microplate reader (FLUOstar Omega, BMG Co.). The inhibition rate (%) was measured from the activity value of the control group and the activity value of the test compound at various concentrations, and the concentration (IC50) that inhibits H^+/K^+-ATPase activity by 50% was calculated from each % inhibition value of the compounds using Logistic 4-parameter function of Sigmaplot8.0 program.

5-HT2A, sequence (P28223 whole entry): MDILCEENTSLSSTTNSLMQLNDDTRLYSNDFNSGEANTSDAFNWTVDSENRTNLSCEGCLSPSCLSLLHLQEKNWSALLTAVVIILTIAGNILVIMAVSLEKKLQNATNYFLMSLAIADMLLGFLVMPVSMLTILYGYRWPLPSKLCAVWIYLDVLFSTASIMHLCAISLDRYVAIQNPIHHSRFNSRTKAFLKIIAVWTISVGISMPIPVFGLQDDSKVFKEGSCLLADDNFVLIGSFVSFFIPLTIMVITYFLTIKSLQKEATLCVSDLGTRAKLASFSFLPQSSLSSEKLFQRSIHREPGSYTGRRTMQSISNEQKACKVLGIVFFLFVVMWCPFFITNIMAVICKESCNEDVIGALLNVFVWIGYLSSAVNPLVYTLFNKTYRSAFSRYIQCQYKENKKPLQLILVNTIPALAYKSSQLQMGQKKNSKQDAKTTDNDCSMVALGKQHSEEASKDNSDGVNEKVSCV
T2 sequence (P19156 2-1034 limits assumed): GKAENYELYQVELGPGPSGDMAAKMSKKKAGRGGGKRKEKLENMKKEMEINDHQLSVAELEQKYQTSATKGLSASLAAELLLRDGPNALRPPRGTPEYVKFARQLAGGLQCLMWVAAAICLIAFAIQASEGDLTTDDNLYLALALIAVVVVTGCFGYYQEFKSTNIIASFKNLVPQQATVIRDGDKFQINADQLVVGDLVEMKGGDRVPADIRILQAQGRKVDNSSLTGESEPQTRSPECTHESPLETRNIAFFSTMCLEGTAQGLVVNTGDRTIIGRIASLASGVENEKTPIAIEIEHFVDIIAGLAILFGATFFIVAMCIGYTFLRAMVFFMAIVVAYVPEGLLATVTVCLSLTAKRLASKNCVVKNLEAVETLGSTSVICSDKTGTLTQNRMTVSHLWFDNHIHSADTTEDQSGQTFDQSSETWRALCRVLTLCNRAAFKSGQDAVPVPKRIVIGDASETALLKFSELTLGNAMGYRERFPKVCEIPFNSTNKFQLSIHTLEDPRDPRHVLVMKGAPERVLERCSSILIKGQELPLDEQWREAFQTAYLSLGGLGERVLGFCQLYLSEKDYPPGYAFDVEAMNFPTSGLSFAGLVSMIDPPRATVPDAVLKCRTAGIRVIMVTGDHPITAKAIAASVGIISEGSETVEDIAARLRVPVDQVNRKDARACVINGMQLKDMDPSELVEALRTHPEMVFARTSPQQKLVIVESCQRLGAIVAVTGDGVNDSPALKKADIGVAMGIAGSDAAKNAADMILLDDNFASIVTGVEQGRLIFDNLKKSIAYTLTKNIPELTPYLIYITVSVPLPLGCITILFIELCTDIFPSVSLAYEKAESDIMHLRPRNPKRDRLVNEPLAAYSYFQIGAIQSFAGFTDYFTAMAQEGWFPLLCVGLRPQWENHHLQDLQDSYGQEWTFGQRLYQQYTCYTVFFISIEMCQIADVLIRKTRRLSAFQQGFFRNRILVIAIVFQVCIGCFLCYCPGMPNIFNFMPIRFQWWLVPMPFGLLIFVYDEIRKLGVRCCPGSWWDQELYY
T2 sequence (P18434 whole entry partner): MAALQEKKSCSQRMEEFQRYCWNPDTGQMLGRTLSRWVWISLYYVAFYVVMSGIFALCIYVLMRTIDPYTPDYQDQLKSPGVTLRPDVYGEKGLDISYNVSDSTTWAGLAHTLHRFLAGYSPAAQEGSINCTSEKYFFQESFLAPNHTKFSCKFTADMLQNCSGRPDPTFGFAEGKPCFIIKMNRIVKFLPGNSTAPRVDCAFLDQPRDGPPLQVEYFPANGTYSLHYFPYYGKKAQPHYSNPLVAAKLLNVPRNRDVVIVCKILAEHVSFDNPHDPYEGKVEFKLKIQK

SMILES: CNCc1cn(S(=O)(=O)c2cccc(C(F)(F)F)c2)c(-c2ccccc2F)c1OC [Example 2, hydrochloride]
- % inhibitory activity (total acid output) [1]: 93.5%
- inhibition at 10 µM (5-HT2A): 39.5%
- inhibition at 10 µM (M2): -4.7%
- pIC50 [2]: 7.82

SMILES: CNCc1cn(S(=O)(=O)c2cccc(F)c2)c(-c2c(F)cc(F)cc2F)c1OC.Cl [Example 22, 1-(1-((3-fluorophenyl)sulfonyl)-4-methoxy-5-(2,4,6-trifluorophenyl)-1H-pyrrol-3-yl)-N-methylmethanamine hydrochloride]
- % inhibitory activity (total acid output) [1]: 88.1%
- pIC50 (5-HT2A): 7.48
- inhibition at 10 µM (5-HT2A; single concentration of 10 uM): 102%
- pIC50 (M2): 6.00
- inhibition at 10 µM (M2): 100%
- pIC50 [2]: 7.85

SMILES: CNCc1cn(S(=O)(=O)c2cccc(F)c2)c(-c2ccc(F)cc2F)c1OC.Cl [Example 8, 1-(5-(2,4-difluorophenyl)-1-((3-fluorophenyl)sulfonyl)-4-methoxy-1H-pyrrol-3-yl)-N-methylmethanamine hydrochloride]
- % inhibitory activity (total acid output) [1]: 90.5%
- pIC50 (5-HT2A): 6.96
- inhibition at 10 µM (5-HT2A; single concentration of 10 uM): 102%
- pIC50 (M2): 6.19
- inhibition at 10 µM (M2): 101%
- pIC50 [2]: 7.62

Reference: patent US10100010B1, “4-methoxy pyrrole derivatives or salts thereof and pharmaceutical composition comprising the same” (Daewoong Pharmaceutical Co., Ltd., priority 2015, dated 2018)
